US9686993B2 (priority 2005, dated 2017)
Where two headings read alike, the source gives them in different places.

Columns and labels:
[1] = test system: Fusarium graminearum, Fusarium culmorum, or Fusarium avenaceum (mycotoxin production, DON); details: in vivo
[2] = test system: wheat scab (Fusarium graminearum, Fusarium culmorum, or Fusarium avenaceum); assay type: in vivo; details: for Medicinal Benefit Control Value: relative to no treatment; for Medicinal Benefit (number of infected berries in 1000 berries): sprayed once at GSs 65 to 71, no treatment 203

COC(=O)NC(=S)Nc1ccccc1NC(=S)NC(=O)OC [Cercobin M, thiophanate-methyl]
amount of mycotoxin production (DON concentration), result in words [1]: inhibited in a dose-dependent manner
Medicinal Benefit Control Value ([2]; 250 g ai/ha): 6.4%
Medicinal Benefit (number of infected berries in 1000 berries) ([2]; 250 g ai/ha): 190
medicinal benefit (number of infected berries in 1000 berries), result in words ([2]; 250 to 500 g ai/ha (combination 500 + 120 g ai/ha), versus no treatment): almost no difference
Medicinal Benefit Control Value ([2]; 375 g ai/ha): 7.4%
Medicinal Benefit (number of infected berries in 1000 berries) ([2]; 375 g ai/ha): 218
Medicinal Benefit Control Value ([2]; 500 g ai/ha): 11.3%
Medicinal Benefit (number of infected berries in 1000 berries) ([2]; 500 g ai/ha): 180
